According to publication PMC3608651, “A Broad Profile of Co-Dominant Epitopes Shapes the Peripheral Mycobacterium tuberculosis Specific CD8+ T-Cell Immune Response in South African Patients with Active Tuberculosis” (PLoS ONE, 2013):
Like-named read-outs stand apart in the source and are kept apart here.

Assays:
Assay type in all cases: binding
[1] = molecular target: HLA-C*07:01 (Homo sapiens, UniProt P10321, K90N/S123Y); settings: percent relative the binding of positive control peptide […]; duplicated experiments; positive binder >40%
[2] = molecular target: HLA-B*07:02 (Homo sapiens, UniProt P01889); settings: percent relative the binding of positive control peptide […]; duplicated experiments; positive binder >40%
[3] = molecular target: HLA-B*58:01 (Homo sapiens, UniProt P01889, A329T/C349S/D201E/D98Y/E176V/E187L/E204Q/E69T/G107R/I218V/I90N/K202T/L105A/L119I/N104I/N87E/Q89R/Q94S/R106L/R155S/R180L/R86G/S101N/S121R/S35A/S48A/T118I/V127L/V306I/V36M/Y140S/Y91M); settings: percent relative the binding of positive control peptide […]; duplicated experiments; positive binder >40%
[4] = molecular target: HLA-A*68:01 (Homo sapiens, UniProt P04439, A269V/D185E/E176V/E277Q/E87N/F33Y/G231S/I121M/I166T/I218V/L180W/L300P/L318F/N151K/P208A/P217A/Q86R/R169H/T345S); settings: percent relative the binding of positive control peptide […]; duplicated experiments; positive binder >40%
[5] = molecular target: HLA-A*24:02 (Homo sapiens, UniProt P04439, D101N/D140Y/D185E/E176V/E190D/F33S/G103R/G107R/I119L/I121M/I306V/K335N/L105A/L180Q/L300P/N151K/N90K/Q86E/Q94H/R106L/R138H/R89G/T104I/T345S/V100E/W191G/Y123F)
[6] = molecular target: HLA-A*02:01 (Homo sapiens, UniProt P04439, D140Y/D185E/D98H/E176V/E277Q/G131W/G231S/I119V/I121R/I166T/I218V/L300P/L318F/N151K/N90K/P208A/P217A/Q86G/Q94H/R138H/R169H/T345S); settings: percent relative the binding of positive control peptide […]; plate-bound monomer 0.5 µg/ml; duplicated experiments; positive binder >40%
[7] = molecular target: HLA-A*30:01 (Homo sapiens, UniProt P04439, D140H/D185E/E176W/F33S/G80R/H175R/K168Q/R138E/R41S); settings: percent relative the binding of positive control peptide […]; duplicated experiments; positive binder >40%
[8] = molecular target: HLA-A*30:02 (Homo sapiens, UniProt P04439, D101N/D140H/D185E/E176R/F33S/G80R/H175R/K168Q/Q94H/R138E/R41S/V100E); settings: percent relative the binding of positive control peptide […]; duplicated experiments; positive binder >40%
[9] = percent relative the binding of positive control peptide […], duplicated experiments, positive binder >40%

| Substance | Bind C*07:01 [1] | Bind B*07:02 [2] | Bind B*58:01 [3] | Bind A*68:01 [4] | Bind A*24:02 [5, 9] | Bind A*02:01 [6] | Bind A*30:01 [7] | Bind A*30:02 [8] | Bind A*24:02 [5] |
| --- | --- | --- | --- | --- | --- | --- | --- | --- | --- |
| SLSALLDPS | 11% | 1% | 18% | 0% | 4% | 57% | 2% | 3% | – |
| YNAAGGHNA | 12% | 0% | 46% | 32% | 0% | 16% | 10% | 53% | – |
| FIYAGSLSA | 35% | 70% | 2% | 38% | 11% | 79% | 0% | 21% | – |
| W YYQ SG LSI | 13% | 6% | 0% | 0% | 143% | 37% | 18% | 0% | – |
| PAFEW YYQS | 2% | 15% | 0% | 6% | 24% | 76% | 0% | 0% | – |
| GSSAMILAA | 8% | 5% | 29% | 4% | 0% | 66% | 0% | 0% | – |
| AVKPTGSAA | 0% | 82% | 0% | 0% | – | 10% | 0% | 7% | 0 |
| DPSQGMGPS | 19% | 0% | 12% | 0% | 58% | 30% | 21% | 29% | – |
| SAAIGLSMA | 0% | 31% | 5% | 0% | 0% | 67% | 0% | 0% | – |
| VRSSNLKFQ | 61% | 10% | 7% | 14% | 23% | 5% | 0% | 0% | – |
| PSQGMGPSL | 29% | 8% | 0% | 0% | 56% | 39% | 21% | 16% | – |
| GGHNAVFNF | 22% | 19% | 52% | 0% | 34% | 40% | 0% | 0% | – |
| AEFLENFVR | 13% | 0% | 10% | 63% | 1% | 12% | 0% | 0% | – |
| FYSDW YSPA | 0% | 0% | 0% | 0% | 10% | 61% | 13% | 0% | – |
| TSELPQW LS | 0% | 14% | 0% | 0% | 52% | 12% | 0% | 0% | – |
| YYQSGLSIV | 25% | 0% | 0% | 5% | – | 98% | 29% | 37% | 130 |
| SGLSIVMPV | 0% | 0% | 0% | 0% | 0% | 95% | 0% | 38% | – |
| WVYCGNGTP | 16% | 2% | 4% | 55% | 0% | 11% | 0% | 0% | – |
| NAAGGHNAV | 5% | 16% | 43% | 28% | 0% | 39% | 27% | 2% | – |
| VYLLDGLRA | 9% | 0% | 0% | 13% | 87% | 86% | 0% | 98% | – |
